For data set [1] the following is noted: cited from earlier work.
Data set [2] can be described thus: Dissolution and crystallization behaviour in lower alcohols. It counts as physicochemical. The note with it: heated lower alcohols, then cooled below ambient temperature, for example 15-25° C.
For data set [3] the following is noted: cited from earlier work. This is another data set of the same source.

Each structure is given as a SMILES string.

With `COc1ccc([C@@H]2CC(=O)c3c(O)cc(O)cc3O2)cc1O` [hesperetin, 3',5,7-trihydroxy-4'-metoxyflavanone], the water solubility entry in data set [1] is reported as “substantially water-insoluble”.
`COc1ccc(C2CC(=O)c3c(O)cc(O[C@@H]4O[C@H](CO[C@@H]5O[C@@H](C)[C@H](O)[C@@H](O)[C@H]5O)[C@@H](O[C@H]5O[C@H](CO)[C@@H](O)[C@H](O)[C@H]5O)[C@H](O)[C@H]4O)cc3O2)cc1O` (stereo partly drawn) [α-monoglucosyl hesperidin]: in data set [2], the “solubility and crystallization in lower alcohols” value is listed as “easily dissolves in heated lower alcohols but easily crystallizes therein when the alcohols are cooled down to temperatures below ambient temperature”.
On the same count and under the same terms, next, `COc1ccc(C2CC(=O)c3c(O)cc(O[C@@H]4O[C@H](CO)[C@@H](O)[C@H](O)[C@H]4O)cc3O2)cc1O` (stereo partly drawn) [β-monoglucosyl hesperetin, 7-O-β-monoglucosyl hesperetin]: “easily dissolves in lower alcohols and does not substantially crystallize even when the alcohols are cooled down to temperatures below ambient temperature”.
With `COc1ccc([C@@H]2CC(=O)c3c(O)cc(O[C@@H]4O[C@H](CO[C@@H]5O[C@@H](C)[C@H](O)[C@@H](O)[C@H]5O)[C@@H](O)[C@H](O)[C@H]4O)cc3O2)cc1O` [Hesperidin], the solubility in water entry in data set [3] (ambient temperature, about one gram in 50 1 water) is reported as “about 0.002 w/v %”. In addition, the solubility in words result in data set [3] (aqueous alkaline solutions, water and acids) was “dissolves in aqueous alkaline solutions but not substantially in water and acids”.

These data come from patent US6048712A, “Process for producing α-monoglucosyl hesperidin-rich substance” (Kabushiki Kaisha Hayashibara, priority 1997, dated 2000).
